Data reported in patent publication US20020009509A1, “Soya extract containing lipids, process for its production, and pharmaceutical and cosmetic composition” (priority 1999, published 2002).

Tested on: dry skin
Assay: Skin hydration of dry skin measured as electric capacitance of the horny layer (Corneometer CM 820)
Format: in vivo
Details: 1.5% extract solution or 2% collagen
Description: The treatment according to the invention was with an emulsion, in water, containing the extract according to the invention and 2% hydroxyethylcellulose. Skin hydration was measured as electric capacitance of the horny layer using a commercially available device (Corneometer CM 820, Courage+ Kazaka, Cologne, Germany). The mean value of five consecutive measurements was determined and recorded as the measured value. The electric capacitance is expressed by means of an arbitrary scale ranging from 0 to 100 units. Groups of 10 subjects were used.

collagen
Hydration (units), After 60 min (60 min after treatment, arbitrary scale 0 to 100 units, groups of 10 subjects, *P < 0.05, **P < 0.001): 57.7 ± 0.1* units | Hydration, Change % (after 60 min versus starting value): 35.6% | Hydration (units), Starting value (before treatment, arbitrary scale 0 to 100 units, groups of 10 subjects): 42.7 ± 0.4 units
